Data from patent US20170107203A1, “HETEROCYCLIC INHIBITORS OF THE SODIUM CHANNEL” (EPIRUS BIOPHARMACEUTICALS, INC., priority 2014, published 2017).

Target: T1, human Nav1.7 (Homo sapiens, UniProt Q15858)
T1 construct: expressed in transfected cells
Experiment: Assessment of Nav1.7 activity on PatchXpress (voltage dependence / slow inactivation parameters)
Format: cell-based
Settings: compound at 10 μM, relative to 0.2% DMSO vehicle control; for hNav1.7: Reduction in current at 20 mV (normalized data) Delta Ratio: before/after 30 sec conditioning pulse at 20 mV; for hNav1.7: Shift in voltage dependence of inactivation (mV) Delta Vhalf: PatchXpress
Procedure: The generation of a HEK 293F cell line stably expressing human Nav1.7/Navp1 was achieved by co-transfecting human SCN9A and human SCN1B cDNAs, subcloned into plasmid vectors, utilizing standard transfection techniques. Clones were selected using appropriate selection agents (0.3 mg/mL Zeocin and 0.8 mg/mL Geneticin) and maintained in Dulbecco's Modified Eagle medium, 10% fetal bovine serum, 1% non-essential amino acids to ˜80% confluence at 37° C. in a humidified incubator with 95% atmosphere and 5% CO2.
On the day of each experiment, cells that were grown to 80% confluence in a T75 flask were harvested for use on PatchXpress (Molecular Devices, CA, USA). Following a recovery period at 37° C. in a humidified incubator with 95% atmosphere and 5% CO2 in Dulbecco's Modified Eagle Medium, the media was replaced with an external recording solution containing (in mM): 90 TEACI, 50 NaCl, 1.8 CaCl2, 1 MgCl2, 10 HEPES, 10 glucose, adjusted to pH 7.4 with TEAOH and 300 mOsm with sucrose. The internal recording solution contained (in mM): 129 CsF, 2 MgCl2, 11 EGTA, 10 HEPES, 6 NaCl, 3 Na2ATP adjusted to pH 7.2 with CsOH and 280 mOsm with sucrose. The automated liquid handling facility of PatchXpress dispensed cells and added compound. Modulation of Nav1.7 channels by compounds was assessed by promoting the channels into the inactivated state using a conditioning voltage pulse of variable amplitude, followed by a brief hyperpolarizing pulse with a subsequent depolarized voltage step to measure the current amplitude in the presence and absence of compound. Compounds were assayed at 10 μM. Based upon this Patch express protocol, four electrophysiological parameters were measured relative to a 0.2% DMSO vehicle control (Table 2).

T1 sequence (Q15858 whole entry): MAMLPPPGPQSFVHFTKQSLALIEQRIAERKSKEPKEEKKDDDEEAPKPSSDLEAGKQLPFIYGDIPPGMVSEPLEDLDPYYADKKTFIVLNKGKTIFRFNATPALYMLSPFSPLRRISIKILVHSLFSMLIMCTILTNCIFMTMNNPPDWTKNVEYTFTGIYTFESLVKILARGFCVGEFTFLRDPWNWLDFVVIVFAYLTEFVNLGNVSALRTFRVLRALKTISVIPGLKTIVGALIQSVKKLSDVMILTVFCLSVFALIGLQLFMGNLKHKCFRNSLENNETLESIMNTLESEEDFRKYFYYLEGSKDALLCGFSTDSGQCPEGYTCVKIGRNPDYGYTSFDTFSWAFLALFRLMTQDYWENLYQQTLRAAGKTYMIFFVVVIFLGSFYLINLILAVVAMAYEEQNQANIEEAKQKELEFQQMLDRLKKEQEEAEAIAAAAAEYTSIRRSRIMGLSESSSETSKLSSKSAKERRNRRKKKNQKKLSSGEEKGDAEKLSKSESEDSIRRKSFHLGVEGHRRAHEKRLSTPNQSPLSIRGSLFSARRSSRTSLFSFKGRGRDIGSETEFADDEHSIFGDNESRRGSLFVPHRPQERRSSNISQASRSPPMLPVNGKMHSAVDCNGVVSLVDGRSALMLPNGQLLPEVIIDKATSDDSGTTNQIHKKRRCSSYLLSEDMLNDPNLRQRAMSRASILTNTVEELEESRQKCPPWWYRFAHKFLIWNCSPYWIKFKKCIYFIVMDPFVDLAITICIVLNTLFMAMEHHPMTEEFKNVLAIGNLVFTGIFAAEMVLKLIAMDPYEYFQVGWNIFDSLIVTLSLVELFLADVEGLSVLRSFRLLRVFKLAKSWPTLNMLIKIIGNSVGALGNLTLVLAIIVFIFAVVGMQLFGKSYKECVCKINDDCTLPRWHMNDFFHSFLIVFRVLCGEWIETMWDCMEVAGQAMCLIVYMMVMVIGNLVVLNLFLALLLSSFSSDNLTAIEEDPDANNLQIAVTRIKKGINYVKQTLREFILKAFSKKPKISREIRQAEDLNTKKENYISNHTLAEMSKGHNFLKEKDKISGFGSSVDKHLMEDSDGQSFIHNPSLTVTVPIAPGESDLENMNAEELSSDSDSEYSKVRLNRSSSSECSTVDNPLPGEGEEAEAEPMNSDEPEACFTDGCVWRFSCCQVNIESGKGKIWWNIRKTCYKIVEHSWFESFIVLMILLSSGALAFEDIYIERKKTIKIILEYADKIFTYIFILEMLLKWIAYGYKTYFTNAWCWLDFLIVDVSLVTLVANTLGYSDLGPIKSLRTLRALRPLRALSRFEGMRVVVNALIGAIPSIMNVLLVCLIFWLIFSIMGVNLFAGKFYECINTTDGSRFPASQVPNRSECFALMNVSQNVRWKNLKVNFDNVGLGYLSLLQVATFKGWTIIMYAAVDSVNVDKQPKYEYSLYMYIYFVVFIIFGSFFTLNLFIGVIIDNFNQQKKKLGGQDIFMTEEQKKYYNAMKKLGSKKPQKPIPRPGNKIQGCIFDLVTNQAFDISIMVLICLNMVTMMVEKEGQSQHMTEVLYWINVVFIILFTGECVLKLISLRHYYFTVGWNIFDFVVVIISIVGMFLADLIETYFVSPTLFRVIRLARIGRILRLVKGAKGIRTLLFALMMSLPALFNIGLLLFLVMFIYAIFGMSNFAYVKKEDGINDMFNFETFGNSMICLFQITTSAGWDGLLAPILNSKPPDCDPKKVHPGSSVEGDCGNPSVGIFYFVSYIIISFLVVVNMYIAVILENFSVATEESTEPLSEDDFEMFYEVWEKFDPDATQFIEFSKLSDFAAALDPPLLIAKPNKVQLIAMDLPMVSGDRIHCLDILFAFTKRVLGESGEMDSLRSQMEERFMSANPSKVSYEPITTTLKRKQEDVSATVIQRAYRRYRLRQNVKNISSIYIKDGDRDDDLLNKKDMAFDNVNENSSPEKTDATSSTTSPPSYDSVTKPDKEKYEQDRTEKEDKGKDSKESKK
T1 sequence (Q07699 19-218 partner): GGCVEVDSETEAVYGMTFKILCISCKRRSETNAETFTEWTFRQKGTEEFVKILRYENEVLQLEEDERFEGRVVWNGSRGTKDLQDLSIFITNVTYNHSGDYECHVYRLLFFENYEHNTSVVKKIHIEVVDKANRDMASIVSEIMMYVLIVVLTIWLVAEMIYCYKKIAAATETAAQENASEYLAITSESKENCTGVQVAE

| Structure (SMILES) | hNav1.7: Reduction in current at 20 mV (normalized data) Delta Ratio | hNav1.7: Voltage dependence of activation (mV) VDEP [mV] | hNav1.7: Voltage dependence of fast inactivation (mV) VDEP [mV] | hNav1.7: Shift in voltage dependence of inactivation (mV) Delta Vhalf [mV] |
| --- | --- | --- | --- | --- |
| O=C(CCc1nc2cc(F)cc(F)c2[nH]1)N1CCNCC1 [Compound 66, 3-(4,6-difluoro-1H-benzo[d]imidazol-2-yl)-1-(piperazin-1-yl)propan-1-one] | −0.14 | −14.5 | −6.9 | −12.0 |
| COC[C@@H](NC(C)=O)C(=O)NCc1cc(C(F)(F)F)cc(C(F)(F)F)c1 [Compound 79, (R)-2-acetamido-N-(3,5-bis(trifluoromethyl)benzyl)-3-methoxypropanamide] | −0.04 | −15.2 | −7.9 | −5.8 |
| NCC(=O)NCc1cc(C(F)(F)F)cc(C(F)(F)F)c1 [Compound 78, 2-amino-N-(3,5-bis(trifluoromethyl)benzyl)acetamide] | −0.04 | −10.5 | −4.6 | −4.2 |
| CC(C)(CC(=O)N1CCNCC1)c1nc2cc(F)cc(F)c2[nH]1 [Compound 67, 3-(4,6-difluoro-1H-benzo[d]imidazol-2-yl)-3-methyl-1-(piperazin-1-yl)butan-1-one] | −0.13 | −9.7 | −7.6 | −7.8 |
| CC(C)(C)OC(=O)N[C@H](Cc1cccc(C(F)(F)F)c1)C(=O)NCc1nc2ccc(-c3ccc(F)c(Cl)c3)cc2[nH]1 [Compound 76, tert-butyl (R)-(1-(((6-(3-chloro-4-fluorophenyl)-1H-benzo[d]imidazol-2-yl)methyl)amino)-1-oxo-3-(3-(trifluoromethyl)phenyl)propan-2-yl)carbamate] | −0.06 | −11.4 | −3.9 | −0.3 |
| CC(C)CC(N)C(=O)N[C@H](C)COc1cc(C(F)(F)F)cc(C(F)(F)F)c1 (stereo partly drawn) [Compound 5, 2-amino-N-((R)-1-(3,5-bis(trifluoromethyl)phenoxy)propan-2-yl)-4-methylpentanamide] | −0.26 | −4.60 | −6.30 | −25.20 |
| Cc1cccc(C)c1OCC(C)NC(=O)[C@H](N)CC(C)C (stereo partly drawn) [Compound 2, (2R)-2-amino-N-(1-(2,6-dimethylphenoxy)propan-2-yl)-4-methylpentanamide] | −0.29 | −10.00 | −8.20 | −32.20 |
| CC(C)(c1nc2cc(F)cc(F)c2[nH]1)N1CCNCC1=O [Compound 64, 1-(2-(4,6-difluoro-1H-benzo[d]imidazol-2-yl)propan-2-yl)piperazin-2-one] | −0.16 | −7.1 | −5.9 | −5.4 |
| N[C@H](Cc1cccc(F)c1)c1nc2cc(C(F)(F)F)cc(C(F)(F)F)c2[nH]1 [Compound 55, (R)-1-(4,6-bis(trifluoromethyl)-1H-benzo[d]imidazol-2-yl)-2-(3-fluorophenyl)ethan-1-amine] | −0.26 | −8.6 | −6.2 | −15.1 |
| Cc1cccc(C)c1OCC(C)NC(=O)CCN1CCNCC1=O (centres unmarked) [Compound 36, N-(1-(2,6-dimethylphenoxy)propan-2-yl)-3-(2-oxopiperazin-1-yl)propanamide] | −0.04 | −12.90 | −5.00 | −2.90 |
| CC(C)(c1nc2cc(C(F)(F)F)cc(C(F)(F)F)c2[nH]1)N1CCNCC1=O [Compound 60, 1-(2-(4,6-bis(trifluoromethyl)-1H-benzo[d]imidazol-2-yl)propan-2-yl)piperazin-2-one] | −0.19 | −8.3 | −3.8 | −9.2 |
| NC1(c2nc3cc(C(F)(F)F)cc(C(F)(F)F)c3[nH]2)Cc2ccccc2C1 [Compound 52, 2-(4,6-bis(trifluoromethyl)-1H-benzo[d]imidazol-2-yl)-2,3-dihydro-1H-inden-2-amine] | −0.28 | −7.2 | −8.2 | −14.9 |
| CC1(c2cc(C(F)(F)F)cc(C(F)(F)F)c2)NC(=O)NC1=O (centres unmarked) [Compound 42, 5-(3,5-bis(trifluoromethyl)phenyl)-5-methylimidazolidine-2,4-dione] | 0.02 | −6.60 | −2.50 | 0.50 |
| Cc1cccc(C)c1OCC(C)NC(=O)[C@@H]1CCCN1 (stereo partly drawn) [Compound 15, (2S)-N-(1-(2,6-dimethylphenoxy)propan-2-yl)pyrrolidine-2-carboxamide] | −0.16 | −6.00 | −4.90 | −20.60 |
| O=C(NC[C@H]1CCCN1)Nc1cc(C(F)(F)F)cc(C(F)(F)F)c1 [Compound 49, (R)-1-(3,5-bis(trifluoromethyl)phenyl)-3-(pyrrolidin-2-ylmethyl)urea] | −0.18 | −10.20 | −7.80 | −6.40 |
| O=C(CN1CCNCC1=O)NCC(F)(F)F [Compound 47, 2-(2-oxopiperazin-1-yl)-N-(2,2,2-trifluoroethyl)acetamide] | −0.02 | −8.90 | −4.40 | −2.50 |
| NC1CCN(C(=O)Cc2nc3cc(C(F)(F)F)cc(C(F)(F)F)c3[nH]2)CC1 [Compound 90, 1-(4-aminopiperidin-1-yl)-2-(4,6-bis(trifluoromethyl)-1H-benzo[d]imidazol-2-yl)ethan-1-one] | 0.01 | −2.9 | 0.1 | 2.3 |
| O=C(Cc1nc2cc(F)cc(F)c2[nH]1)NC1CCNCC1 [Compound 89, 2-(4,6-difluoro-1H-benzo[d]imidazol-2-yl)-N-(piperidin-4-yl)acetamide] | −0.01 | −10.6 | −4.4 | −3.6 |
| N[C@@H](Cc1ccccc1)c1nc2cc(C(F)(F)F)cc(C(F)(F)F)c2[nH]1 [Compound 51, (S)-1-(4,6-bis(trifluoromethyl)-1H-benzo[d]imidazol-2-yl)-2-phenylethan-1-amine] | −0.35 | −9.5 | −11.5 | −20.8 |
| CC(C)(C)OC(=O)N[C@H](Cc1cccc(C(F)(F)F)c1)C(=O)NCc1nc2ccc(Br)cc2[nH]1 [Compound 72, tert-butyl (R)-(1-(((6-bromo-1H-benzo[d]imidazol-2-yl)methyl)amino)-1-oxo-3-(3-(trifluoromethyl)phenyl)propan-2-yl)carbamate] | −0.07 | −3.3 | −7.3 | −6.7 |
